In experiment [1] the test system is chronic kidney disease model rat. Put plainly: Suppressive effect on calcium deposition in blood vessel of chronic kidney disease model rat. Type of experiment: in vivo. The note with it: suppression of calcium deposition in blood vessel (thoracic aorta). Here is the method: (§1) A group given feed non-supplemented with the test compound was used as a reference pathological group, and a group neither subjected to the kidney removal nor antibody administration and given feed non-supplemented with the test compound was used as a normal group. Fourteen weeks after the start of administration of the test compound, blood was collected from the abdominal aorta and serum was collected. As an indicator of renal damage, serum creatinine concentrations were measured by an enzyme assay (creatinase-sarcosine oxidase-POD method). The rate of suppression of a rise in serum creatinine concentration was determined according to the following expression: Rate (%) of suppression of a rise in serum creatinine concentration = (1−[(Serum creatinine concentration of the test compound−treated pathological group)−(Serum ceatinine concentration of the […])]/[(Serum creatinine concentration of the reference pathological group)−(Serum creatinine concentration of the normal group)]) × 100 [formula]
From the same animal as that in Test Example 7, the thoracic aorta was collected 14 weeks after the start of administration of the test compound, and the dry weight was measured. […]

Experiment [2] deals with rat small-intestinal brush border membrane vesicles. Put plainly: Inhibitory effect on 33PO4 uptake into rat small-intestinal brush border membrane vesicles (rapid filtration method). Conditions: 33PO4 uptake into rat small-intestinal BBMVs; test compound 1 µM; reacted for 60 seconds. Type of experiment: biochemical. In a few lines: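 Uptake of ^33PO4 was measured by rapid filtration and liquid scintillation counting of filter-retained vesicles, after quenching with ice-cold 110 mM NaCl/1 mM KH2PO4/10 mM HEPES pH 7.5. Vesicles were brush border membranes from the upper small intestine of female Wistar rats aged 4–5 weeks.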

In experiment [3] the test system is Adenine-induced renal failure rats. As to the kind of experiment: Suppressive effect on rise in serum phosphorus concentration by combined use with sevelamer carbonate (adenine-induced renal failure rat). Format: in vivo. The note with it: 14 days. From the text:
Adenine was forcedly administered orally to each Wistar male rat (7-8 weeks old) to impair renal functions and thereby prepare a hyperphosphatemia model (Katsumata K, Kusano K, Hirata M, Tsunemi K, Nagano N, Burke SK, Fukushima N. Sevelamer hydrochloride prevents ectopic calcification and renal osteodystrophy in chronic renal failure rats. Kidney Int. 2003 Aug; 64 (2): 441-50). Each test compound was mixed at a ratio of 0.1% of mass concentration with feed. The animal was fed with a given amount of the feed for 3 days. A group given feed non-supplemented with a test compound was used as a reference pathological group, and an adenine-unadministered group given feed non-supplemented with a test compound was used as a normal group. 3 days after the start of administration of the test compound, blood was collected from the jugular vein, and serum was collected. Serum phosphorus concentrations were measured by the Fiske-Subbarow method. The rate of suppression of a rise in serum phosphorus concentration was determined according to the following expression: Rate (%) of suppression of a rise in serum phosphorus concentration = (1−[(Serum phosphorus concentration of the test compound−treated pathological group)−(Serum phosphorus concentration of the normal group)]/[(Serum phosphorus concentration of the reference pathological group)−(Serum phosphorus concentration of the normal group)]) × 100 [formula]
Adenine-induced renal failure rats were prepared in the same manner as in Test Example 5. […] Serum phosphorus concentrations were measured by the Fiske-Subbarow method. The rate of suppression of a rise in serum phosphorus concentration was determined according to the following expression: Rate (%) of suppression of a rise in serum phosphorus concentration = (1−[(Serum phosphorus concentration of the compound−treated pathological group)−(Serum phorphorus concentration of the normal group)]/[(Serum phosphorus concentration of the reference pathological group)−(Serum phosphorous concentration of the normal group)]) × 100 [formula] […]

Experiment [4] relates to chronic kidney disease model rat. As to the kind of experiment: Suppressive effect on rise in serum creatinine concentration of chronic kidney disease model rat. Type of experiment: in vivo. Conditions: suppression of a rise in serum creatinine concentration, dosage 0.1% in feed for 14 weeks. Here is the method:
as §1
As a result, the test compound was confirmed to have a suppressive effect on a rise in serum creatinine concentration, namely, a suppressive effect on renal damage. […]

For experiment [5] the test system is unchanged. As to the kind of experiment: Suppressive effect on rise in serum parathyroid hormone concentration of chronic kidney disease model rat. Format: in vivo. Conditions: suppression of a rise in serum parathyroid hormone concentration. Here is the method: as §1
Using serum collected from the same animal as that in test example 7 after 14 weeks from the start of administration of the test compound, concentrations of serum parathyroid hormone were measured by the ELISA method. […]

The mark [6] stands for this setting: dosage 0.1% in feed for 14 weeks.
The mark [7] stands for this setting: dosage 0.3% in feed for 14 weeks.

Turning to `COCCN(C)CCOc1ccc(CN2C(=O)C(C(=O)Nc3ccc(C(F)(F)F)cc3-c3cc(C(F)(F)F)ncn3)=C(O)C3(CCCC3)N2C)c(F)c1F` [Example 14, 7-[[2,3-Difluoro-4-[2-[2-methoxyethyl(methyl)amino]ethoxy]phenyl]methyl]-10-hydroxy-6-methyl-8-oxo-N-[4-(trifluoromethyl)-2-[6-(trifluoromethyl)pyrimidin-4-yl]phenyl]-6,7-diazaspiro[4.5]dec-9-ene-9-carboxamide], the “Rate of inhibition (%)” value came to 100% in experiment [1] (setting [6]); 100% in experiment [1] (setting [7]); 17% in experiment [4]; 13% in experiment [5] (setting [6]); 67% in experiment [5] (setting [7]). In experiment [2], the “Rate of uptake inhibition (%) (1 µM)” value turned out to be 29%. Besides, the “Suppression rate of rise in serum phosphorus concentration (%)” value was 104% in experiment [3] (test compound 0.05% by mass in combination with sevelamer carbonate 0.5% by mass in feed), 61% in experiment [3] (test compound 0.05% by mass in feed alone (sevelamer carbonate 0%)) and 79% in experiment [3] (test compound 0.1% by mass in feed alone (sevelamer carbonate 0%)).

The values are drawn from patent EP3928779A1 (Chugai Seiyaku Kabushiki Kaisha, priority 2014, dated 2016).
